# Reference: patent US20250090562A1, “METHODS, COMPOSITIONS AND USES RELATED TO THE TREATMENT AND PREVENTION OF LEIGH’S SYNDROME” (Stealth BioTherapeutics Inc., priority 2023, published 2025)
# “Also recorded” adds a separate entry of the source. Where two headings read alike, the source gives them in different places.
# Tests used:
# 15-lipoxygenase (15-LO) [1] = experiment: 15(S)-HETE ELISA following erastin treatment, healthy fibroblasts; assay type: cell-based, human; conditions: erastin + FAC + AA, 1 μM compound, 24 h
# Description: (§1) Samples for the 15(S)-HETE ELISA were generated by the Erastin Assay described above. Healthy or Leigh fibroblasts were resuspended in assay medium, seeded at 200,000 cells/well in a clear, tissue culture-treated, 24-well plate, and incubated at 37° C. for 24 hours. Supernatant was aspirated from each well.
# (§2) Ferroptosis was induced using erastin at 2 μM concentration. 15(S)-HETE, which is a metabolite of arachidonic acid and generated by activity of 15-LO, was measured using a commercially available ELISA kit. Data were normalized to the “No treatment” group, which represented fibroblasts that were not injured with erastin.
# 15-lipoxygenase (15-LO) [2] = experiment: 15(S)-HETE ELISA following erastin treatment, Leigh fibroblasts; assay type: cell-based, human; conditions: erastin + FAC + AA, 1 μM compound, 24 h
# Description: as §1, §2
# [3] = assay type: in vivo; conditions: rat, single dose 1 mg/kg IV, 10 mg/kg SC or 10 mg/kg PO
# Description: • Animals: Rat/Sprague Dawley/Male/Naive 225-250 grams were received from an approved vendor. • Animals were fasted overnight prior to dose administration. Food was returned following the 2 hour sample collection. • Body weights were recorded prior to dose administration. The volume of each dose delivered (ml/kg) was based on each individual animal's body weight. • This was a single dose, serial blood collection study with tissues collected for possible future analysis. • Doses were administered in accordance with test facility standard operating procedures. […].
# • Blood samples were collected via jugular vein catheter (JVC) and transferred to tubes with appropriate anticoagulant. The tubes were stored on wet ice until processed to plasma by centrifugation (3500 rpm at 5° C. for 10 minutes) within 20 minutes of collection. Sample aliquots of 100 μL were transferred into individual uniquely labeled matrix tubes containing 10 μL of 5% (v/v) formic acid aqueous solution and stored at nominal −80° C. until analyzed by LC/MS/MS. • Immediately following final serial blood collection (24 hours, JVC), animals were sacrificed and perfused with cold PBS. […]
# [4] = Pharmacokinetics of Compound 3, repeated (5 days) subcutaneous dose, rats; assay type: in vivo, Sprague Dawley rats
# Description: • Animals: Rat/Sprague Dawley/Male/Naive 225-250 grams were received from an approved vendor. • Fasting was not required for this study. • Body weights were recorded prior to dose administration. The volume of each dose delivered (mL/kg) was based on each individual animal's body weight. • This was a multiple dose terminal study dosed once per day over 5 days. Rats were taken down following their 5th and final dose. • Doses were administered in accordance with test facility standard operating procedures. […] Any abnormalities were recorded. • Pre-formulated Compounds 3 was provided by Study sponsor ready to be dosed for each day in accordance with the Study Design set forth in Table 3, below.
# • Terminal blood samples were collected via cardiac puncture following inhalation anesthesia in accordance with test facility standard operating procedures. • Blood samples were collected into tubes with appropriate anticoagulant. Tubes were stored on wet ice until processed to plasma by centrifugation (3500 rpm at 5° C. for 10 minutes) within 20 minutes of collection. Sample aliquots of 100 μL were transferred into individual uniquely labeled matrix tubes and stored at nominal −80° C. until transferred to analytical chemistry for analysis. • Immediately following each terminal blood collection for all groups, animals were sacrificed and perfused with cold PBS. […]
# [5] = Compound 4 pharmacokinetics and tissue exposure, five daily subcutaneous doses, mice; assay type: in vivo, C57BL/6 mice
# Description: • Animals were allowed to acclimate to the test facility for at least two days prior to the beginning of the study. • Study animals were male C57BL/6 mice weighing approximately 18-25 grams each. • Fasting was not required for the study. • Body weights were recorded prior to dose administration. The volume of each dose delivered (mL/kg) was based on each individual animal's body weight. • This was a multiple dose serial PK dosed subcutaneously once daily over 5 days. Compound 4 was administered to two groups: Group 1 at 60 mg/kg and Group 2 at 180 mg/kg (6 and 18 mg/mL, 15% Kolliphor ELP in PBS, 10 mL/kg; N=3/group). Serial PK timepoints were collected following the 5th and final dose.
# • Serial blood samples were collected via tail vein snip. • Blood samples were collected into tubes with anticoagulant. Tubes were stored on wet ice until processed to plasma by centrifugation (3500 rpm at 5° C. for 10 minutes) within 20 minutes of collection. Sample aliquots of 20 μL were transferred into individual uniquely labeled matrix tubes and stored at nominal −80° C. until transferred to analytical chemistry for analysis. • Immediately following each terminal blood collection for all groups, animals were sacrificed and perfused with cold PBS. Heart and brain tissues were collected. • Perfusion methodology: The chest was opened lengthwise using scissors to expose the thoracic organs. A scalpel was used to cut a small hole into the left ventricle just large enough to insert a cannula tip. The cannula was attached to an appropriately sized tubing and syringe prefilled with cold PBS and primed to remove any air. The tip of the cannula was inserted into the left ventricle and directed into the ascending aorta. Hemostats were used to help keep the cannula in place during perfusion. A second hole was made in the right atrium to allow for the escape of fluid during the return circulation. The syringe attached to the cannula was manually pushed or placed into a pump programmed to infuse at 10 mL/min. Animals were perfused for a minimum of 3 minutes or more if needed (until the exiting fluid was clear).
# • N=3/group; • Collections relative to the final dose: • Plasma: 60 mg/kg at 2 and 24 hr; 180 mg/kg at predose, 2, 8, and 24 hr • Heart and Brain: 24 hr (terminal, PBS-perfused); • RGA 2 bioanalysis. […]
# [6] = male, C57BL/6, mouse, in vivo, sc
# [7] = male, C57BL/6, mouse, in vivo, sc, 60 mg/kg
# [8] = male, C57BL/6, mouse, in vivo, sc, 60 mg/kg, 24 h
# [9] = male, C57BL/6, mouse, in vivo, sc, 180 mg/kg
# [10] = male, C57BL/6, mouse, in vivo, sc, 180 mg/kg, 24 h
smiles,measurement,setting,value
CC1=C(C)C(=O)C(CC[C@@](C)(O)CC/C=C(\C)CCC=C(F)F)=C(C)C1=O [Compound 2],relative 15-LO inhibition (comparison between test articles),15-lipoxygenase (15-LO) [1],slightly less effective
same,relative 15-LO inhibition (comparison between test articles),15-lipoxygenase (15-LO) [2],slightly less effective
same,tolerability,[3],well tolerated
same,delivery by mode of administration,[3]; preliminary,effectively administered
CC1=C(C)C(=O)C(CC[C@@](C)(O)COCCC[Si](C)(C)C)=C(C)C1=O [Compound 3],plasma uptake and clearance across species (mouse versus rat),[4]; 20 mg/kg SC in mouse versus 10 mg/kg SC in rat (60 mg/m^2),roughly equivalent; also recorded: scales well by allometry
same,tolerability,"[4]; rat, 10 mg/kg SC once per day for 5 days",well tolerated
CC1=C(C)C(=O)C(CC[C@](C)(O)CCCCCCCCC(F)(F)F)=C(C)C1=O [Compound 4],tolerability,"[5]; 60 and 180 mg/kg SC over 5 days, 10 mL/kg QD, 15% Kolliphor ELP in PBS",well tolerated
same,Geomean C24,"[5]; male, C57BL/6, mouse, in vivo, 180 mg/kg, 24 h",602 ng/g
same,concentration at 24 h,"[5]; male, C57BL/6, mouse, in vivo, 180 mg/kg, Geomean C24",514 ng/g
same,time to steady-state,[5]; [6],≤ 5 days
same,AUC(0-t),[5]; [7],15400 ng·h/mL
same,AUClast/Dose,[5]; [7],257 kg·ng·h/mL/mg
same,Cmax,[5]; [7],1440 ng/mL
same,"Concentration in C57BL/6 Mouse Tissue, Geomean",[5]; [8],225 ng/g
same,"Concentration in C57BL/6 Mouse Tissue, Mean",[5]; [8],226 ng/g
same,Cmax,"[5]; male, C57BL/6, mouse, in vivo, sc, 60 mg/kg, Cmax",1810 ng/mL
same,concentration at 24 h,"[5]; male, C57BL/6, mouse, in vivo, sc, 60 mg/kg, Concentration in C57BL/6 Mouse Tissue, Geomean",192 ng/g
same,concentration at 24 h,"[5]; male, C57BL/6, mouse, in vivo, sc, 60 mg/kg, Concentration in C57BL/6 Mouse Tissue, Mean",212 ng/g
same,AUC(0-t),[5]; [9],49100 ng·h/mL
same,AUClast/Dose,[5]; [9],273 kg·ng·h/mL/mg
same,Cmax/Dose,[5]; [9],26.7 kg·ng/mL/mg
same,C24/Dose,[5]; [10],1.48 kg·ng/mL/mg
same,"Concentration in C57BL/6 Mouse Tissue, Geomean",[5]; [10],602 ng/g
same,"Concentration in C57BL/6 Mouse Tissue, Mean",[5]; [10],635 ng/g
same,concentration at 24 h,"[5]; male, C57BL/6, mouse, in vivo, sc, 180 mg/kg, C24",266 ng/mL
same,Cmax,"[5]; male, C57BL/6, mouse, in vivo, sc, 180 mg/kg, Cmax",4800 ng/mL
same,concentration at 24 h,"[5]; male, C57BL/6, mouse, in vivo, sc, 180 mg/kg, Concentration in C57BL/6 Mouse Tissue, Geomean",514 ng/g
same,concentration at 24 h,"[5]; male, C57BL/6, mouse, in vivo, sc, 180 mg/kg, Concentration in C57BL/6 Mouse Tissue, Mean",529 ng/g
same,Tmax,[5]; [9],2 h
same,Tmax,[5]; [6],0.5 to 2 h
same,plasma exposure versus dose,"[5]; mouse, in vivo",approximately proportional to dose
same,tissue C24 (trough) exposure versus dose,"[5]; mouse, in vivo",approximately proportional to dose
